Experimental findings from patent US10981932B2, “Macrocyclic indole derivatives” (Bayer Aktiengesellschaft, priority 2016, dated 2021) are described below.

The structures appear in SMILES notation. Structures can show the parent of a compound that is named as a salt. Where two headings read alike, the source gives them in different places.

The subject of series [1] is SUDHL5. The series can be described thus: Induction of caspase-3/7 activity (Caspase-Glo 3/7), SUDHL5. It counts as cell-based. Particulars: caspase-3/7 induction, SUDHL5 cells, 3 h treatment, median. An outline of the steps: (§1)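 Apoptosis induction measured as caspase-3/7 activity (Caspase-Glo 3/7) in DLBCL lines after 3 h treatment at 37 °C; EC50 derived relative to the reference compound's maximal induction, with C0 fixed at 1.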

The target of series [2] is MCL-1 (Homo sapiens, UniProt Q07820). Put plainly: Protein-protein interaction assay MCL-1/Noxa BH3 peptide (MCL-1 assay), TR-FRET. Type of series: binding. The settings on record: MBP-MCL-1 / Noxa BH3-derived peptide, median. An outline of the steps:
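Inhibition values were normalized between DMSO controls with all reagents and controls lacking MCL-1. The binding competition used 1 nM MBP-MCL-1 in pH 7 Tris buffer containing 50 mM KF and 100 mM NaCl, with a 10 min compound preincubation at 22 °C.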
(In general: TR-FRET usually uses a lanthanide donor and a delayed reading to cut background.)

The subject of series [3] is SUDHL5. The series can be described thus: Induction of cytotoxicity (CellTiter-Glo, 5 h), SUDHL5.
For series [4], the system named is A2780. Put plainly: Anti-proliferative effect (CellTiter-Glo, 72 h), A2780. It counts as cell-based. Particulars: A2780 cells, median, read-out: IC50 antiproliferation assay A2780 [M] (median). An outline of the steps:
(§2)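 After seeding, one plate is read right away by CellTiter-Glo luminescence to fix time zero. The treated plates stay at 37 °C in humidified air for 72 h and are then measured with the same reagent and 10 min incubation.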
For orientation: Cellular ATP, detected with luciferase, serves as a proxy for viable cell number.

Series [5] deals with OPM2. Put plainly: Anti-proliferative effect (CellTiter-Glo, 72 h), OPM2. It counts as cell-based. The settings on record: OPM2 cells, median, read-out: IC50 antiproliferation assay OPM2 [M] (median). A digest of the protocol:
as §2

The subject of series [6] is SUDHL10. Put plainly: Induction of caspase-3/7 activity (Caspase-Glo 3/7), SUDHL10. Particulars: caspase-3/7 induction, SUDHL10 cells, 3 h treatment, median. Type of series: cell-based. A digest of the protocol:
as §1

Series [7] has as its system SUDHL5. Put plainly: Anti-proliferative effect (CellTiter-Glo, 72 h), SUDHL5. It counts as cell-based. Particulars: SUDHL5 cells, antiproliferation, 72 h incubation, median, read-out: Antiproli SUDHL5 [M] (median). An outline of the steps: as §2
Series [8] concerns SUDHL10. The series can be described thus: Anti-proliferative effect (CellTiter-Glo, 72 h), SUDHL10. It counts as cell-based. The settings on record: SUDHL10 cells, antiproliferation, 72 h incubation, median, read-out: Antiproli SUDHL10 [M] (median). An outline of the steps: as §2
Series [9] relates to MV-4-11. Put plainly: Anti-proliferative effect (CellTiter-Glo, 72 h), MV-4-11. It counts as cell-based. Particulars: MV-4-11 cells, median, read-out: IC50 antiproliferation assay MV-4-11 [M] (median). An outline of the steps:
as §2

Series [10] concerns SUDHL10. Put plainly: Induction of cytotoxicity (CellTiter-Glo, 5 h), SUDHL10.
The mark [11] stands for this setting: Homo sapiens, SU-DHL-5, 5 h, read-out: Cytotox SUDHL5 [M] (median), SUDHL5 cells, cytotoxicity induction, CellTiter-Glo, 5 h incubation, median.
Where [12] appears, read: Homo sapiens, SU-DHL10, 5 h, read-out: Cytotox SUDHL10 [M] (median), SUDHL10 cells, cytotoxicity induction, CellTiter-Glo, 5 h incubation, median.
[13] abbreviates: read-out: Cytotox SUDHL5 [M] (median), SUDHL5 cells, cytotoxicity induction, CellTiter-Glo, 5 h incubation, median.
Setting [14] is: read-out: Cytotox SUDHL10 [M] (median), SUDHL10 cells, cytotoxicity induction, CellTiter-Glo, 5 h incubation, median.

Chain of MCL-1 (Q07820 whole entry): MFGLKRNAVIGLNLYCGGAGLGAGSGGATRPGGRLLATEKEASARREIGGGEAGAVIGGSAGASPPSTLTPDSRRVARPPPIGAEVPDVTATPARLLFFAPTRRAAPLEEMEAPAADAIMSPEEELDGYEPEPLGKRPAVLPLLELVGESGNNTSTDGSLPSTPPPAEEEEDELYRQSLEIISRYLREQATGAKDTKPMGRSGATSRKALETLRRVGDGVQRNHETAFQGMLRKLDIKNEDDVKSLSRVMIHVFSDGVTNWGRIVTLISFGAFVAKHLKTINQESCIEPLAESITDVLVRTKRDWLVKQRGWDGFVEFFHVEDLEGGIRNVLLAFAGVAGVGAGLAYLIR

As for `Cc1ccc2c(CCCOc3cccc4ccccc34)c(C(=O)O)n3c2c1-c1c(C)nn(C)c1COCCCC3` (racemic) [Example 027, (rac)-1,3,4-trimethyl-7-[3-(naphthalen-1-yloxy)propyl]-1,10,11,12,13,15-hexahydropyrazolo[4′,3′:9,10][1,6]oxazacycloundecino[8,7,6-hi]indole-8-carboxylic Acid], the EC50 (usually the concentration needed to bring the measured effect to its halfway point) worked out at 6.7 µM in series [1] (Homo sapiens, SU-DHL-5, 3 h) and 20.4 µM in [6] (Homo sapiens, SU-DHL10, 3 h). Moreover, the IC50 in series [2] is 0.00527 µM; in [3] (setting [11]) it was 8.54e-06 M; in series [4] (Homo sapiens, A2780, 72 h), 2.54e-05 M; in series [5] (Homo sapiens, OPM-2, 72 h), over 3.3e-05 M; in series [7] (Homo sapiens, SU-DHL-5, 72 h) it was 9.27e-06 M; in series [8] (Homo sapiens, SU-DHL10, 72 h), 7.34e-06 M. Moreover, the IC50 was 2.98e-05 M in [9] (Homo sapiens, MV4-11, 72 h) and 2.59e-05 M in series [10] (setting [12]).
As to `CCc1c2c(nn1C)COCCCCn1c(C(=O)O)c(CCCOc3cccc4ccccc34)c3cccc-2c31` (racemic) [Example 147, (rac)-3-Ethyl-2-methyl-7-[3-(1-naphthyloxy)propyl]-2,10,11,12,13,15-hexahydropyrazolo[4′,3′:9,10][1,6]oxazacycloundecino[8,7,6-hi]indole-8-carboxylic Acid], the EC50 in series [1] (Homo sapiens, SU-DHL-5, 3 h) was determined as 2.26 µM; in [6] (Homo sapiens, SU-DHL10, 3 h) it was 7.48 µM. For the same molecule, the IC50 stood at 0.00377 µM in [2]; 2.8e-06 M in [3] (setting [11]); 2.44e-05 M in series [4] (Homo sapiens, A2780, 72 h); 1.05e-05 M in [5] (Homo sapiens, OPM-2, 72 h); 3.06e-06 M in [7] (Homo sapiens, SU-DHL-5, 72 h); 3.93e-06 M in series [8] (Homo sapiens, SU-DHL10, 72 h). The IC50 was determined as 1.37e-05 M in [9] (Homo sapiens, MV4-11, 72 h) and 9.53e-06 M in series [10] (setting [12]).
Turning to `CN1CCCn2c(C(=O)O)c(CCCOc3cccc4ccccc34)c3cccc(c32)-c2c(COc3ccc(S(C)(=O)=O)cc3)nn(C)c2C1` (single isomer, unassigned) [Example 1-49, (−)-7,9-dimethyl-11-{[4-(methylsulfonyl)phenoxy]methyl}-1-[3-(naphthalen-1-yloxy)propyl]-4,5,6,7,8,9-hexahydropyrazolo[3′,4′:7,8][1,5]diazecino[9,10,1-hi]indole-2-carboxylic Acid], the EC50 was found to be 20.4 µM in series [1] and 18.8 µM in [6]. Also, the IC50 in [2] was 0.0542 µM; in [3] (setting [13]) it was 3.3e-05 M; in [4] (Homo sapiens, A2780, 72 h), 2.31e-05 M; in series [5], over 3.3e-05 M; in series [7], 1.22e-05 M; in series [8] (Homo sapiens, SU-DHL10, 72 h), 9.58e-06 M. For the same molecule, the IC50 in series [9] (Homo sapiens, MV4-11, 72 h) worked out at 1.21e-05 M; in series [10] (setting [12]), 2.5e-05 M.
As for `CN1CCCn2c(C(=O)O)c(CCCOc3cccc4ccccc34)c3cccc(c32)-c2c(COc3ccc(S(C)(=O)=O)cc3)nn(C)c2C1` (single isomer, unassigned) [Example 1-50], the EC50 turned out to be 6.14 µM in series [1] and 6.71 µM in series [6]. The IC50 in [2] was determined as 0.0167 µM; in series [3] (setting [13]) it was 5.74e-06 M; in [4], 1.83e-05 M; in series [5], 1.21e-05 M; in series [7], 5.52e-06 M; in series [8], 9.59e-06 M. For the same molecule, the IC50 in series [9] was 1.05e-05 M; in series [10] (setting [14]) it was 1.26e-05 M.
Regarding `Cn1nc(COc2ccc(S(C)(=O)=O)cc2)c2c1COCC=CCn1c(C(=O)O)c(CCCOc3cccc4ccccc34)c3cccc-2c31` (single isomer, unassigned) [Example 1-52, (E/Z)-1-methy-3-{[4-(methylsulfonyl)phenoxy]methyl}-7-[3-(naphthalen-1-yloxy)propyl]-1,10,13,15-tetrahydropyrazolo[4′,3′:9,10][1,6]oxazacycloundecino[8,7,6-hi]indole-8-carboxylic Acid], the EC50 is 31 µM in [1] and over 33 µM in series [6]. Moreover, the IC50 stood at 0.281 µM in series [2]; 3.15e-05 M in series [3] (setting [13]); 2.26e-05 M in series [4] (Homo sapiens, A2780, 72 h); 3.2e-05 M in [5] (Homo sapiens, OPM-2, 72 h); 1.25e-05 M in series [7] (Homo sapiens, SU-DHL-5, 72 h); 7.55e-06 M in [8] (Homo sapiens, SU-DHL10, 72 h). The IC50 in series [9] (Homo sapiens, MV4-11, 72 h) came to 7.75e-06 M; in [10] (setting [14]), 2.71e-05 M.
`COc1ccccc1-c1ncc(OCc2nn(C)c3c2-c2cccc4c(CCCOc5cccc6ccccc56)c(C(=O)O)n(c24)CCCN(C)C3)cn1` (single isomer, unassigned) [Example 1-91, 11-({[2-(2-methoxyphenyl)pyrimidin-5-yl]oxy}methyl)-7,9-dimethyl-1-[3-(naphthalen-1-yloxy)propyl]-4,5,6,7,8,9-hexahydropyrazolo[3′,4′:7,8][1,5]diazecino[9,10,1-hi]indole-2-carboxylic acid-N-ethylethanamine Salt]: the EC50 in series [1] (Homo sapiens, SU-DHL-5, 3 h) is 6.34 µM; in [6] (Homo sapiens, SU-DHL10, 3 h) it was 7.32 µM. Also, the IC50 in series [2] came to 0.0102 µM; in series [3] (setting [13]), 5.99e-06 M; in series [4] (Homo sapiens, A2780, 72 h) it was 7.55e-06 M; in [5] (Homo sapiens, OPM-2, 72 h), 8.37e-06 M; in series [7] (Homo sapiens, SU-DHL-5, 72 h), 2.48e-06 M; in series [8] (Homo sapiens, SU-DHL10, 72 h), 4.3e-06 M. In addition, the IC50 came out at 2.62e-06 M in series [9] (Homo sapiens, MV4-11, 72 h) and 9.23e-06 M in series [10] (setting [12]).
In the case of `COc1ccccc1-c1ncc(OCc2nn(C)c3c2-c2cccc4c(CCCOc5cccc6ccccc56)c(C(=O)O)n(c24)CCCN(C)C3)cn1` (single isomer, unassigned) [Example 1-92, 11-({[2-(2-methoxyphenyl)pyrimidin-5-yl]oxy}methyl)-7,9-dimethyl-1-[3-(naphthalen-1-yloxy)propyl]-4,5,6,7,8,9-hexahydropyrazolo[3′,4′:7,8][1,5]diazecino[9,10,1-hi]indole-2-carboxylic acid-N-ethylethanamine Salt], the EC50 in series [1] amounted to 3.88 µM; in series [6], 4.47 µM. The IC50 stood at 0.0068 µM in series [2]; 2.9e-06 M in series [3] (setting [13]); 6.23e-06 M in series [4]; 9.6e-06 M in series [5]; 3.21e-06 M in [7]; 3.83e-06 M in series [8]. Also, the values for the IC50 in series [9] and in series [10] (setting [14]) were 1.57e-06 M and 5.77e-06 M, respectively.
As to `Cn1nc(COc2ccc(N3CCN(S(C)(=O)=O)CC3)cc2)c2c1COCCCCn1c(C(=O)O)c(CCCOc3cccc4ccccc34)c3cccc-2c31` (single isomer, unassigned; enantiomer 1) [Example 1-9, 1-methyl-3-({4-[4-(methylsulfonyl)piperazin-1-yl]phenoxy}methyl)-7-[3-(naphthalen-1-yloxy)propyl]-1,10,11,12,13,15-hexahydropyrazolo[4′,3′:9,10][1,6]oxazacycloundecino[8,7,6-hi]indole-8-carboxylic Acid (Enantiomer 1)], the EC50 was determined as 12.5 µM in series [1] and 14.7 µM in [6]. For the same molecule, the IC50 in [2] is 0.0242 µM; in series [3] (setting [13]), 9.46e-06 M; in series [4], over 3.3e-05 M; in series [5] it was over 3.3e-05 M; in series [7] it was 3.37e-06 M; in series [8], 1.17e-05 M. Moreover, the IC50 in series [9] is 8.59e-06 M; in series [10] (setting [14]) it was 9.08e-06 M.
Consider `Cn1nc(COc2ccc(N3CCN(S(=O)(=O)C4CC4)CC3)cc2)c2c1COCCCCn1c(C(=O)O)c(CCCOc3cccc4ccccc34)c3cccc-2c31` (single isomer, unassigned; enantiomer 1) [Example 1-12, 3-({4-[4-(cyclopropylsulfonyl)piperazin-1-yl]phenoxy}methyl)-1-methyl-7-[3-(naphthalen-1-yloxy)propyl]-1,10,11,12,13,15-hexahydropyrazolo[4′,3′:9,10][1,6]oxazacycloundecino[8,7,6-hi]indole-8-carboxylic Acid (Enantiomer 1)], for which the EC50 in [1] is 18.3 µM; in [6], 20.4 µM. Moreover, the IC50 was 0.0688 µM in series [2]; 1.73e-05 M in series [3] (setting [13]); over 3.3e-05 M in series [4]; over 3.3e-05 M in [5]; 5.72e-06 M in series [7]; 8.96e-06 M in series [8]. The IC50 came out at 6.78e-06 M in series [9] and 1.43e-05 M in series [10] (setting [14]).
